Laboratory results from ChEMBL document CHEMBL1146842, “Design, synthesis, and biological evaluations of novel quinolones as HIV-1 non-nucleoside reverse transcriptase inhibitors” (Bioorg Med Chem Lett, 2006).

Each molecule was assayed on HEK293 (assay: Cytotoxicity against HEK293T cells). Settings: Homo sapiens.
Assay type: functional

SMILES	CC50 [µM]
CCOC(=O)C12CC1(C1CCCC1)c1cc(Cl)ccc1NC2=O (configuration not stated)	> 10
CCCCC12CC1(C(=O)NCC)C(=O)Nc1ccc(Cl)cc12 (configuration not stated)	> 10
CCOC(=O)C12CC1(Cc1ccccc1)c1cc(Cl)ccc1NC2=O (configuration not stated)	> 10
C=CCNC(=O)C12CC1(CCCC)c1cc(Cl)ccc1NC2=O (configuration not stated)	> 10
CCOC(=O)C12CC1(CC)c1cc(Cl)ccc1NC2=O (configuration not stated)	> 10
CCCCC12CC1(C(=O)CCC)C(=O)Nc1ccc(Cl)cc12 (configuration not stated)	> 10
CCCCC12CC1(C#N)C(=O)Nc1ccc(Cl)cc12 (configuration not stated)	> 10
CCCCC12CC1(C(=O)Oc1ccc(C#N)cc1)C(=O)Nc1ccc(Cl)cc12 (configuration not stated)	> 10
CCOC(=O)C12CC1(C)c1cc(Cl)ccc1NC2=O (configuration not stated)	> 10
CCCCC12CC1(C(=O)OCCC#N)C(=O)Nc1ccc(Cl)cc12 (configuration not stated)	> 10
CCCCC12CC1(C(=O)Nc1ccccn1)C(=O)Nc1ccc(Cl)cc12 (configuration not stated)	> 10
CCCCC12CC1(C(=O)CC1CC1)C(=O)Nc1ccc(Cl)cc12 (configuration not stated)	> 10
CCCCC12CC1(C(=O)Nc1ccccc1C(N)=O)C(=O)Nc1ccc(Cl)cc12 (configuration not stated)	> 10
CCCCC12CC1(C(=O)NC(C)C)C(=O)Nc1ccc(Cl)cc12 (configuration not stated)	> 10
CCCCC12CC1(C(=O)Oc1ccccc1)C(=O)Nc1ccc(Cl)cc12 (configuration not stated)	> 10
CCOC(=O)C12CC1(c1ccc(-c3ccccc3)cc1)c1cc(Cl)ccc1NC2=O (configuration not stated)	> 10
CCOC(=O)C12CC1(C1CC1)c1cc(Cl)ccc1NC2=O (configuration not stated)	> 10
CCCCC12CC1(C(=O)NCc1ccccc1)C(=O)Nc1ccc(Cl)cc12 (configuration not stated)	8.82
C=CCOCC12CC1(CCCC)c1cc(Cl)ccc1NC2=O (configuration not stated)	> 10
CCOC(=O)C12CC1(C1CCCCC1)c1cc(Cl)ccc1NC2=O (configuration not stated)	> 10
CCCCC12CCC1(C(=O)OCC)C(=O)Nc1ccc(Cl)cc12 (configuration not stated)	> 10
CCCCc1c(C(=O)OCC)c(O)nc2ccc(Cl)cc12	> 10
CCCCC12CC1(C(=O)N1CCCC1)C(=O)Nc1ccc(Cl)cc12 (configuration not stated)	> 10
CCCCC12CC1(C(=O)N1CCC1)C(=O)Nc1ccc(Cl)cc12 (configuration not stated)	> 10
CCCCC12CC1(C(=O)OCC=C(C)C)C(=O)Nc1ccc(Cl)cc12 (configuration not stated)	> 10
CCCCC12CC1(C(=O)Nc1ccccc1C#N)C(=O)Nc1ccc(Cl)cc12 (configuration not stated)	6.09

The molecules below were run on Human immunodeficiency virus 1 (assay: Antiviral activity against HIV1). Settings: not given.
Assay type: functional, organism-based

SMILES	EC50 [µM]
CCOC(=O)C12CC1(C1CCCC1)c1cc(Cl)ccc1NC2=O (configuration not stated)	3.25
CCCCC12CC1(C(=O)NCC)C(=O)Nc1ccc(Cl)cc12 (configuration not stated)	0.747
CCOC(=O)C12CC1(Cc1ccccc1)c1cc(Cl)ccc1NC2=O (configuration not stated)	> 10
C=CCNC(=O)C12CC1(CCCC)c1cc(Cl)ccc1NC2=O (configuration not stated)	0.489
CCOC(=O)C12CC1(CC)c1cc(Cl)ccc1NC2=O (configuration not stated)	5.04
CCCCC12CC1(C(=O)CCC)C(=O)Nc1ccc(Cl)cc12 (configuration not stated)	0.265
CCCCC12CC1(C#N)C(=O)Nc1ccc(Cl)cc12 (configuration not stated)	0.197
CCCCC12CC1(C(=O)Oc1ccc(C#N)cc1)C(=O)Nc1ccc(Cl)cc12 (configuration not stated)	1.09
CCOC(=O)C12CC1(C)c1cc(Cl)ccc1NC2=O (configuration not stated)	> 10
CCCCC12CC1(C(=O)OCCC#N)C(=O)Nc1ccc(Cl)cc12 (configuration not stated)	0.113
CCCCC12CC1(C(=O)Nc1ccccn1)C(=O)Nc1ccc(Cl)cc12 (configuration not stated)	2.69
CCCCC12CC1(C(=O)CC1CC1)C(=O)Nc1ccc(Cl)cc12 (configuration not stated)	5.69
CCCCC12CC1(C(=O)Nc1ccccc1C(N)=O)C(=O)Nc1ccc(Cl)cc12 (configuration not stated)	1.33
CCCCC12CC1(C(=O)NC(C)C)C(=O)Nc1ccc(Cl)cc12 (configuration not stated)	2.77
CCCCC12CC1(C(=O)Oc1ccccc1)C(=O)Nc1ccc(Cl)cc12 (configuration not stated)	> 10
CCOC(=O)C12CC1(c1ccc(-c3ccccc3)cc1)c1cc(Cl)ccc1NC2=O (configuration not stated)	> 10
CCOC(=O)C12CC1(C1CC1)c1cc(Cl)ccc1NC2=O (configuration not stated)	> 10
CCCCC12CC1(C(=O)NCc1ccccc1)C(=O)Nc1ccc(Cl)cc12 (configuration not stated)	2.82
C=CCOCC12CC1(CCCC)c1cc(Cl)ccc1NC2=O (configuration not stated)	0.24
CCOC(=O)C12CC1(C1CCCCC1)c1cc(Cl)ccc1NC2=O (configuration not stated)	> 10
CCCCC12CCC1(C(=O)OCC)C(=O)Nc1ccc(Cl)cc12 (configuration not stated)	0.102
CCCCc1c(C(=O)OCC)c(O)nc2ccc(Cl)cc12	0.166
CCCCC12CC1(C(=O)N1CCCC1)C(=O)Nc1ccc(Cl)cc12 (configuration not stated)	> 10
CCCCC12CC1(C(=O)N1CCC1)C(=O)Nc1ccc(Cl)cc12 (configuration not stated)	> 10
CCCCC12CC1(C(=O)OCC=C(C)C)C(=O)Nc1ccc(Cl)cc12 (configuration not stated)	2.36
CCCCC12CC1(C(=O)Nc1ccccc1C#N)C(=O)Nc1ccc(Cl)cc12 (configuration not stated)	1.71
